In assay [1] the target is T1, Drosophila OR71a (Drosophila melanogaster, UniProt Q9VUK5).
T1 construct: expressed in transfected cells
T1 sequence (Q9VUK5 1-378): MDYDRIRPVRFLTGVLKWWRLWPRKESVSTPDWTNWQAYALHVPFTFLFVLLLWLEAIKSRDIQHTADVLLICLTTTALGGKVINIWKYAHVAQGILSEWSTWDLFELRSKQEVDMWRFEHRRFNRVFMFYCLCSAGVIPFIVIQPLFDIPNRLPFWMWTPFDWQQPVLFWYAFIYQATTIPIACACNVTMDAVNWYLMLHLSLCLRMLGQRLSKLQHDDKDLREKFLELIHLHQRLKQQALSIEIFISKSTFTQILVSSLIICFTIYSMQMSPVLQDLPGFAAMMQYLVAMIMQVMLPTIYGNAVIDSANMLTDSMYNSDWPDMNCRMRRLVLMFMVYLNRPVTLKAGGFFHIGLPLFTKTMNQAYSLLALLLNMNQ
T1 sequence (Q9VNB5 1-486 partner): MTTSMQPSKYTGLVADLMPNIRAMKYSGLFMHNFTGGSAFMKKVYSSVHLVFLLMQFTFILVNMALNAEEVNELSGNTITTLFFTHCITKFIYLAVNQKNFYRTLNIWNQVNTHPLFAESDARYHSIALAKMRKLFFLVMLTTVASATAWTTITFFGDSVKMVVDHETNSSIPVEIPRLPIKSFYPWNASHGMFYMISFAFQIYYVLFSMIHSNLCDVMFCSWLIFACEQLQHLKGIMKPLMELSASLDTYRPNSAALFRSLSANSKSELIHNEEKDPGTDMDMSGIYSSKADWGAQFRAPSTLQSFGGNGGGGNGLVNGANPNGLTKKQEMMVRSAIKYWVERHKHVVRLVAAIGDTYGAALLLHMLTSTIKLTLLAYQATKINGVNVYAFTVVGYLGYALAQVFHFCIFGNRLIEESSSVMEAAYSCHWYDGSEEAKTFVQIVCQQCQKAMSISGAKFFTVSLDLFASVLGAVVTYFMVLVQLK
In words: Calcium ion fluorescence (GCaMP6) assay, OR71a stable HEK293 cell line. The settings on record: for Average response: VUAA1-normalized response, mean of biological replicates; for activation at 1 µM / activation at 10 µM / activation at 100 µM: HEK293, read-out: OR71a response (VUAA1-normalized response). It counts as cell-based. Put shortly: (§1)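 Responses are VUAA1-normalized ΔF: each VOC-evoked calcium signal, (FMAX−F0)/F0 over 30 s after injection, divided by the same line's mean 50 µM VUAA1 response. Cells were doxycycline-induced HEK293 with GCaMP6 and the cognate Drosophila OR, in HEPES buffer pH 7.3; ligands tested 0.01–100 μM.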

The target of assay [2] is T2, Drosophila OR98a (Drosophila melanogaster, UniProt Q9VAZ3).
T2 construct: expressed in transfected cells
T2 sequence (Q9VAZ3 1-397): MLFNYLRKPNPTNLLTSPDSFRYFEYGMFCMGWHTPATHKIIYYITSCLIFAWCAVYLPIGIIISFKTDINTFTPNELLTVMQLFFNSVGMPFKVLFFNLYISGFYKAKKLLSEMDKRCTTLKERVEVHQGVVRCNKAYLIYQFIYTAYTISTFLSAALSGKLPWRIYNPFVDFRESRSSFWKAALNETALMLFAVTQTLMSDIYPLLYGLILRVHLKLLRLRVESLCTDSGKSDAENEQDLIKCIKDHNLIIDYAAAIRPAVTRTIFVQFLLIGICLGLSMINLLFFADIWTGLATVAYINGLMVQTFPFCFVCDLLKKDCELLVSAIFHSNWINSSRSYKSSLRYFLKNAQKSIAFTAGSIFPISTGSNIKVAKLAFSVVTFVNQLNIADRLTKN
T2 sequence (Q9VNB5 1-486 partner): T1 sequence (Q9VNB5 1-486 partner)
Briefly: Calcium ion fluorescence (GCaMP6) assay, OR98a stable HEK293 cell line. It counts as cell-based. The settings on record: for OR98a Average response (VUAA1-normalized): 50 μM VUAA1 = 1; for Average response: average of biological replicates, fraction of VUAA1 response. Put shortly:
as §1

Setting [3] is: ligand concentration 1 (unit not given), threshold 0.05, below shown as 0.
[4] abbreviates: ligand concentration 10 (unit not given), threshold 0.05, below shown as 0.
[5] abbreviates: ligand concentration 100 (unit not given), threshold 0.05, below shown as 0.
Where [6] appears, read: HEK293, read-out: Average response.
The mark [7] stands for this setting: concentration 1, normalized fluorescence change, values below 0.05 threshold given as 0.
Where [8] appears, read: concentration 10, normalized fluorescence change, values below 0.05 threshold given as 0.
The mark [9] stands for this setting: concentration 100, normalized fluorescence change, values below 0.05 threshold given as 0.
[10] abbreviates: HEK293, read-out: OR98a response (VUAA1-normalized response).
[11] abbreviates: ligand concentration 1 (unit not given), 0.05 threshold, values below shown as 0.
Where [12] appears, read: ligand concentration 10 (unit not given), 0.05 threshold, values below shown as 0.
The mark [13] stands for this setting: ligand concentration 100 (unit not given), 0.05 threshold, values below shown as 0.
The mark [14] stands for this setting: HEK293, read-out: OR98a Average response (VUAA1-normalized).

We go through 4 compounds from article PMC10709440, “High-throughput ligand profile characterization in novel cell lines expressing seven heterologous insect olfactory receptors for the detection of volatile plant biomarkers” (Scientific Reports, 2023).

Structures are written as SMILES. Read-outs that look alike come from different tables or passages of the source.

As to `C=CC(C)(O)CCC=C(C)C` (stereo not drawn) [linalool], the “OR71a response (VUAA1-normalized) at 1 μM” value in assay [1] (OR71a cell line, VOC concentration 1 μM) came out at 0.00. Further, the “OR71a response (VUAA1-normalized) at 10 μM” value in assay [1] (OR71a cell line, VOC concentration 10 μM) was determined as 0.00. Also, in assay [1] (OR71a cell line, VOC concentration 100 μM), the “OR71a response (VUAA1-normalized) at 100 μM” value was 0.00. Further, the Average response in assay [1] (OR71a cell line, cc. 1 µM) is given as 0.00; in assay [1] (OR71a cell line, cc. 10 µM), 0.0443; in assay [1] (OR71a cell line, cc. 100 µM), 0.0124. Besides, the “DF norm AVERAGE OR71a” value in assay [1] (setting [3]), in assay [1] (setting [4]) and in assay [1] (setting [5]) was 0 each time. In addition, the activation at 1 µM in assay [2] (setting [6]) is 0%. Besides, the activation at 10 µM in assay [2] (setting [6]) was found to be 0%. Further, the activation at 100 µM in assay [2] (setting [6]) came out at 4%. For the same compound, the “OR98a response (VUAA1-normalized) at 1 μM” value in assay [2] (OR98a cell line, VOC concentration 1 μM) is on record as 0.00. For the same compound, the “OR98a response (VUAA1-normalized) at 10 μM” value in assay [2] (OR98a cell line, VOC concentration 10 μM) is reported as 0.00. In addition, the “OR98a response (VUAA1-normalized) at 100 μM” value in assay [2] (OR98a cell line, VOC concentration 100 μM) is on record as 0.00. The “DF norm AVERAGE OR98a” value in assay [2] (setting [3]), in assay [2] (setting [4]) and in assay [2] (setting [5]) was 0 throughout.
Regarding `Cc1ccc(C)c(C)c1` [1,2,4-trimethylbenzene], the activation at 1 µM in assay [1], in assay [2] (setting [6]) and in assay [2] (setting [10]) was 0% each time. The results for the activation at 10 µM in assay [1], in assay [2] (setting [6]) and in assay [2] (setting [10]) were 0%, 13% and 13%, respectively. Moreover, the figures for the activation at 100 µM in assay [1], in assay [2] (setting [6]) and in assay [2] (setting [10]) were 0%, 5% and 5%, respectively. Further, the Average response in assay [1] (OR71a cell line, cc. 1 µM) came to 0.00; in assay [1] (OR71a cell line, cc. 10 µM), 0.00; in assay [1] (OR71a cell line, cc. 100 µM) it was 0.00. Also, the “DF norm AVERAGE OR71a” value in assay [1] (setting [7]), in assay [1] (setting [8]) and in assay [1] (setting [9]) was 0 in each case. Moreover, the “DF norm AVERAGE OR98a” value in assay [2] (setting [7]) is on record as 0; in assay [2] (setting [8]), 0.1254; in assay [2] (setting [9]) it was 0.05229.
`CC/C=C\CCO` [Z3-hexenol]: the Average response amounted to 0.00 in assay [1] (OR71a cell line, cc. 1 µM); 0.0174 in assay [1] (OR71a cell line, cc. 10 µM); 0.00 in assay [1] (OR71a cell line, cc. 100 µM); 0.00 in assay [2] (cc. 1 µM, OR98a cell line); 0.17 in assay [2] (cc. 10 µM, OR98a cell line); 0.11 in assay [2] (cc. 100 µM, OR98a cell line). In addition, the “DF norm AVERAGE OR71a” value in assay [1] (setting [11]), in assay [1] (setting [12]) and in assay [1] (setting [13]) was 0 throughout. For the same compound, the entries for the “OR98a Average response (VUAA1-normalized)” value in assay [2] (1 μM VOC), in assay [2] (10 μM VOC) and in assay [2] (100 μM VOC) were 0.00, 0.17 and 0.11, respectively. The “DF norm AVERAGE OR98a” value in assay [2] (setting [11]) is given as 0; in assay [2] (setting [12]), 0.167; in assay [2] (setting [13]) it was 0.1147.
As for `CC(=O)OCCC(C)C` [isopentyl acetate], the activation at 1 µM in assay [1] came out at 0%; in assay [2] (setting [6]), 2.74%; in assay [2] (setting [14]) it was 3%; in assay [2] (setting [10]), 0%. The activation at 10 µM in assay [1] was 0%; in assay [2] (setting [6]), 2.22%; in assay [2] (setting [14]), 2%; in assay [2] (setting [10]) it was 0%. Besides, the activation at 100 µM in assay [1] turned out to be 0%; in assay [2] (setting [6]), 31%; in assay [2] (setting [14]), 31%; in assay [2] (setting [10]) it was 31%. The Average response was found to be 0.0333 in assay [1] (OR71a cell line, cc. 1 µM); 0.037 in assay [1] (OR71a cell line, cc. 10 µM); 0.0218 in assay [1] (OR71a cell line, cc. 100 µM). The “DF norm AVERAGE OR71a” value in assay [1] (setting [3]), in assay [1] (setting [4]) and in assay [1] (setting [5]) was 0 in each case. Moreover, the “DF norm AVERAGE OR98a” value amounted to 0 in assay [2] (setting [3]), 0 in assay [2] (setting [4]) and 0.3069 in assay [2] (setting [5]).
